Measurements as given in patent US4612185A, “Methods and compositions for enhancing magnetic resonance imaging” (Mallinckrodt, Inc., priority 1984, dated 1986).

Tests used:
liver or kidney = assay: In vivo fluorine (19F) MR spectra of liver and kidney in anesthetized rabbit; conditions: 4 mmol F/kg intravenous, 1.9 Tesla
Text: (§1) An anesthetized rabbit was placed in a 12 inch bore, 1.9 Tesla MRI magnet. An RF coil ([…], I.D., 4 cm, O.D.) was placed on the surface of the liver or a kidney which were excised surgically. Fluorine spectra were obtained following 4 mmol F/kg intravenous doses of a solution of sodium [2-(trifluoromethyl)benzamido]acetate (20%, w/v, 2.2 M F, of the compound).

mice = assay: Acute intravenous toxicity in mice, 7-day observation, LD50 by Litchfield and Wilcoxon; assay type: in vivo, mouse (Swiss ICR CD-1); conditions: for MORTALITIES/NUMBER TREATED / AVERAGE SURVIVOR WEEKLY BODY WEIGHT CHANGE: single intravenous; for MORTALITIES/NUMBER TREATED: 7 days; for AVERAGE SURVIVOR WEEKLY BODY WEIGHT CHANGE: survivors
Protocol: Sodium [2-(trifluoromethyl) benzamido] acetate was prepared as a 20% w/v solution in sterile water for injection and the pH was adjusted to 7.0 using 0.1 N HCl.
A total of 14 mice (7 male, 24.6-30.0 g; 7 females, 18.6-26.0 g; Swiss ICR CD-1, Charles River) were used. Animals were housed according to standard operating procedures and marked for identification with picric acid.
Groups of 2-3 mice received single intravenous injections of sodium [2-(trifluoromethyl)benzamido]acetate according to the followinq schedule:
Measured single doses were injected into the lateral tail vein at a rate of 1 ml/min. The animals were observed immediately after dosing and during the 7-day observation period for pharmacotoxic reactions. Recording of terminal body weights and general necrospy of the thoracic and abdominal organs was performed after 7 days. An LD50 value was calculated using the method of Litchfield and Wilcoxon (J. Pharmacol. Exp. Ther. 96:99,1949).

[1] = test system: liver, heart, kidney, skeletal muscle, spleen, blood and urine samples; assay: Fluorine analysis of rabbit tissue, blood and urine samples by MR spectroscopy; assay type: in vivo; conditions: 4 mmol F/kg intravenous, conclusion of experiment
Text: as §1
At the conclusion of the experiment, the rabbit was killed and liver, heart, kidney, skeletal muscle, spleen, blood and urine samples were analyzed for fluorine by MR spectroscopy.

`O=C([O-])CNC(=O)c1ccccc1C(F)(F)F.[Na+]` [sodium [2-(trifluoromethyl)benzamido]acetate] was tested, and the “fluorine spectra in liver and kidney” value (liver or kidney; both liver and kidney) was “only a single peak which was the same as the spectrum from a solution of sodium [2-(trifluoromethyl)benzamido]acetate”, the “fluorine signal intensity in kidney” value (liver or kidney; kidney) was “peaked very rapidly in the kidney and remained elevated for several minutes” and the “fluorine signal intensity in liver” value (liver or kidney; liver versus kidney) was “less than that for the kidney and took a longer time to peak”. For the same compound, the “MORTALITIES/NUMBER TREATED” value (mice; 1000 mg/kg) was 0/2, the “AVERAGE SURVIVOR WEEKLY BODY WEIGHT CHANGE” value (mice; 1000 mg/kg) was 0.1 g and the “MORTALITIES/NUMBER TREATED” value (mice; 2000 mg/kg) was 0/2. The “AVERAGE SURVIVOR WEEKLY BODY WEIGHT CHANGE” value (mice; 2000 mg/kg) was 2.2 g, the “MORTALITIES/NUMBER TREATED” value (mice; 4000 mg/kg) was 0/2 and the “AVERAGE SURVIVOR WEEKLY BODY WEIGHT CHANGE” value (mice; 4000 mg/kg) was 1.8 g. The “MORTALITIES/NUMBER TREATED” value (mice; 6000 mg/kg) was 1/3, the “AVERAGE SURVIVOR WEEKLY BODY WEIGHT CHANGE” value (mice; 6000 mg/kg) was 1.0 g and the “MORTALITIES/NUMBER TREATED” value (mice; 7000 mg/kg) was 2/3. For the same compound, the “AVERAGE SURVIVOR WEEKLY BODY WEIGHT CHANGE” value (mice; 7000 mg/kg) was 2.7 g, the “MORTALITIES/NUMBER TREATED” value (mice; 8000 mg/kg) was 2/2 and the reactions preceding death (mice; intravenous, all deaths) was “mild convulsions”. The “time of deaths after treatment” value (mice; intravenous, all deaths) was at most 10 min, the “time after treatment within which all survivors appeared normal” value (mice; intravenous, all survivors) was at most 5 h and the “toxic reactions (hyperactivity)” value (mice; intravenous, doses=2000 mg/kg (so in the source)) was “mild hyperactivity”. The “toxic reactions (hypoactivity)” value (mice; intravenous, doses=4000 mg/kg (so in the source)) was “dose-related hypoactivity”, the “body weight of one survivor, week after treatment” value (mice; intravenous, one survivor dosed with 1000 mg) was “body weight loss” and the “body weight of all other survivors” value (mice; intravenous, one week) was “weight gains”. For the same compound, the “estimated mouse intravenous LD50” value (mice; mouse, intravenous, compound dose) was 6500 mg/kg, the intravenous toxicity profile (mice; summary statement of toxicity studies) was “extremely good intravenous toxicity profile” and the necropsy findings (mice; thoracic and abdominal organs, following one week observation) was “No abnormalities were observed”. The “fluorine concentrations in kidney, urine and blood” value [1] was “highest concentrations of fluorine” and the “fluorine in other tissue specimens” value ([1]; specimens other than kidney, urine, blood) was “minimal fluorine detected”.
